Reference: ChEMBL document CHEMBL1932915, “Synthesis and biological evaluation of sialic acid derivatives containing a long hydrophobic chain at the anomeric position and their C-5 linked polymers as potent influenza virus inhibitors” (Bioorg Med Chem, 2012)

Tests used:
Neuraminidase = Neuraminidase (Influenza A virus, UniProt B4URF0); test: Inhibition of Avian influenza virus A/DK/HK/313/78 (H5N3) neuraminidase using 4-MU-Neu5Ac as substrate after 30 mins by fluorimetry
[1] = target: Neuraminidase (Influenza A virus (A/Puerto Rico/8/1934(H1N1)), UniProt P03468); test: Inhibition of Human influenza virus A/PR/8/34 (H1N1) neuraminidase using 4-MU-Neu5Ac as substrate after 30 mins by fluorimetry
[2] = target: Neuraminidase (Influenza A virus (A/Aichi/2/1968(H3N2)), UniProt Q75VQ4); test: Inhibition of Human influenza virus A/Aichi/2/68 (H3N2) neuraminidase using 4-MU-Neu5Ac as substrate after 30 mins by fluorimetry
[3] = Inhibition of Avian influenza virus A/DK/HK/313/78 (H5N3) hemagglutininin activity in chicken erythrocytes after 1 hr; type: cell-based

Neuraminidase, sequence (B4URF0 whole entry): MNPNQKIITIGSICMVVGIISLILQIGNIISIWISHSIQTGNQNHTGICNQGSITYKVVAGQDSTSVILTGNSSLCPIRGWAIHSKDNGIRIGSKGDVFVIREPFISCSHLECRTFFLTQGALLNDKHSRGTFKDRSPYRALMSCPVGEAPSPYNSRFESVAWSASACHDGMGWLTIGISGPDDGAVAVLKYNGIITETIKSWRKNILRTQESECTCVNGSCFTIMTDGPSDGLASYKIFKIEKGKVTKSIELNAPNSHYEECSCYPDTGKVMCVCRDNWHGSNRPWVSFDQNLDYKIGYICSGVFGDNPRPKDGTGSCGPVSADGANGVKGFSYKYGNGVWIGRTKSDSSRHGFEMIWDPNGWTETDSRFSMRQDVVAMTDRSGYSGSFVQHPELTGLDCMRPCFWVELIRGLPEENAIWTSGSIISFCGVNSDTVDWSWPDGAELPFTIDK
Neuraminidase (Influenza A virus (A/Aichi/2/1968(H3N2)), UniProt Q75VQ4), sequence (Q75VQ4 whole entry): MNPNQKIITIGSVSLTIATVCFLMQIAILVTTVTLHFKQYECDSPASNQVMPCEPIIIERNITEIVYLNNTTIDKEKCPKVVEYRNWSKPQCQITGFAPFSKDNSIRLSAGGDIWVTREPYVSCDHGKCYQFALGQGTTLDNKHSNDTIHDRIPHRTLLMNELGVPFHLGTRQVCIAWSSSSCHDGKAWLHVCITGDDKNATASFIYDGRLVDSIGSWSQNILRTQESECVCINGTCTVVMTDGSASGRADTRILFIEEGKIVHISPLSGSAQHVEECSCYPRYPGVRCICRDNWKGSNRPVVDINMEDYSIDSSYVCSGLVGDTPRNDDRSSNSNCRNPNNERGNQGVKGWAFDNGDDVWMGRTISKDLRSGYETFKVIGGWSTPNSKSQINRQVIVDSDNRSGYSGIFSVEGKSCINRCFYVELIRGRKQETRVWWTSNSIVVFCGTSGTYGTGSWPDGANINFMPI
Neuraminidase (Influenza A virus (A/Puerto Rico/8/1934(H1N1)), UniProt P03468), sequence (P03468 whole entry): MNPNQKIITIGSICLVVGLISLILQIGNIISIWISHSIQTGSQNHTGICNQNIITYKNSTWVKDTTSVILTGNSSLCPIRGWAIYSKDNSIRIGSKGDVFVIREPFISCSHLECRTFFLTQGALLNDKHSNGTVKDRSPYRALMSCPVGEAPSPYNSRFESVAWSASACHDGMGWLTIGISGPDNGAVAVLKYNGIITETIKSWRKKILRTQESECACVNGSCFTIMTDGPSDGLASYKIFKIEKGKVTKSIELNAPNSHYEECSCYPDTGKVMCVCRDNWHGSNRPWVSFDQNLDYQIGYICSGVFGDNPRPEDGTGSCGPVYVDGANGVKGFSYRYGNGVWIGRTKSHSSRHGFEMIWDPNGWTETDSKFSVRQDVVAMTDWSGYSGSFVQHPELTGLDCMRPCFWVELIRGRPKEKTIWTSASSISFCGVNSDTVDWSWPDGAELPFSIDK

C=CC(=O)N[C@H]1[C@H]([C@H](O)[C@H](O)CO)O[C@@](SCCCCCCCCCCCC)(C(=O)O)C[C@@H]1O
EC50 (Neuraminidase): 533 µM | EC50 [1]: 1350 µM | EC50 [2]: 428 µM

C=CC(=O)N[C@H]1[C@H]([C@H](O)[C@H](O)CO)OC(O)(C(=O)O)C[C@@H]1O (stereo not given in full)
IC50 [3]: > 250 µM | EC50 (Neuraminidase): 609 µM | EC50 [1]: 2480 µM | EC50 [2]: 1080 µM

C=CC(=O)NCCCCCC(=O)N[C@H]1[C@H]([C@H](O)[C@H](O)CO)O[C@@](SCCCCCCCCCCCC)(C(=O)O)C[C@@H]1O
EC50 (Neuraminidase): 102 µM | EC50 [1]: 743 µM | EC50 [2]: 840 µM
